Data on 16 molecules can be found in patent publication US20230322715A1, “BROAD SPECTRUM ANTI-CANCER COMPOUNDS” (The Regents of the University of California, priority 2019, published 2023).

Broadly, the IC50 is the midpoint of a concentration-inhibition curve. Usually Ki stands for a dissociation constant, usually derived from enzyme kinetics or from competition with a known ligand. The melting point is the temperature, or range, at which the solid turns liquid.

The structures appear in SMILES notation.

ALKBH5, sequence (Q6P6C2 whole entry): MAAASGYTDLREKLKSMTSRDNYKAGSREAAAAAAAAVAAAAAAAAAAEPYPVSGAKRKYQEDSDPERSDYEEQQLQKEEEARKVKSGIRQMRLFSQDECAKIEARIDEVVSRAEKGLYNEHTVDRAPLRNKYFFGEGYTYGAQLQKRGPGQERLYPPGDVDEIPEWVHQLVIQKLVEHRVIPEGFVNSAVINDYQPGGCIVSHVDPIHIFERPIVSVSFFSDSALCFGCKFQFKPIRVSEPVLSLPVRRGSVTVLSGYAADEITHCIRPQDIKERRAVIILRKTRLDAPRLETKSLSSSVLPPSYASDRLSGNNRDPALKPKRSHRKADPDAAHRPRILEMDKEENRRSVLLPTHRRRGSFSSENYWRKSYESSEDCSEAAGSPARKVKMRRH

One series deals with ALKBH5 (Homo sapiens (Human), UniProt Q6P6C2). Kind of series: Fluorescence enzymatic inhibition assay (m6A7-Broccoli RNA / DFHBI-1T) against ALKBH5. It counts as biochemical. As to conditions: Table 800 compounds; read-out: ALKBH5 IC50. The method, then:
(§1) Inhibitors were added in concentrations ranging from 0.008-40 μM; all inhibitors were dissolved in DMSO and added to a final concentration of 0.2% DMSO. […] After incubation at room temperature for 2 hours, the plates were left at 4° C. overnight (16 hours) to allow DFHBI-1T to bind to A7-Broccoli RNA. […] Sigmoidal dose-response curves were fitted in GraphPad Prism 6. All assays were performed in triplicate, with additional repetitions added as necessary.
In the case of `O=S(=O)(NCc1ccccn1)c1ccc(OC(F)(F)F)cc1` [TR-ALKBH5-32], the IC50 stood at 2.2 µM.

As to `Cc1ccc(NS(=O)(=O)c2ccc(OC(F)(F)F)cc2)cc1C` [TR-ALKBH5-34], the IC50 turned out to be 23.3 µM.

For the molecule `O=S(=O)(Nc1ccccc1N1CCCCC1)c1ccc(OC(F)(F)F)cc1` [TR-ALKBH5-36], the IC50 stood at 0.4 µM.

For `O=S(=O)(Nc1ccc(F)c(Cl)c1)c1ccc(OC(F)(F)F)cc1` [TR-ALKBH5-38], the IC50 turned out to be 1.9 µM.

Turning to `O=S(=O)(Nc1cccc(O)c1)c1ccc(OC(F)(F)F)cc1` [TR-ALKBH5-39], the IC50 was determined as 3.1 µM.

`CN(CCCN1c2ccccc2CCc2ccccc21)S(=O)(=O)c1ccc(OC(F)(F)F)cc1` [TR-ALKBH5-40]: the IC50 was 2.3 µM.

Consider `C[C@@H](NS(=O)(=O)c1ccc(OC(F)(F)F)cc1)c1cccnc1` [TR-ALKBH5-42], for which the IC50 came to 0.25 µM.

The series is the same for the next values; noted with them: m6A7-Broccoli fluorescence assay, 0.250 μM ALKBH5; read-out: Enzymatic IC50 ALKBH5.
Consider `FC(F)(F)c1cccc(CNCC2(N3CCCC3)COC2)c1` [TR-FTO-02], for which the IC50 was found to be 19.5 µM.

As for `FC1CCN(C2(CNCc3ccc(-c4ccccc4)o3)COC2)C1` (stereo not drawn) [TR-FTO-48], the 50% inhibitory concentration (IC50) came out at 2.6 µM.

The target of the next series is FTO (Homo sapiens (Human), UniProt Q9C0B1). Kind of series: Fluorescence enzymatic inhibition assay (m6A7-Broccoli RNA / DFHBI-1T) against FTO. In kind it is biochemical. Conditions: Table 800 compounds; read-out: FTO IC50. As to the method: In order to determine their efficacy as FTO inhibitors, the compounds were screened by a fluorescence enzymatic inhibition assay developed previously by the Jaffrey lab.^44 Briefly, a nonfluorescent methylated RNA substrate termed “m6A7-Broccoli” is incubated with FTO in the presence of 2-oxoglutarate (300 μM), (NH4)2Fe(SO4)2·6H2O (300 μM), and L-ascorbate (2 mM) for 2 hours at room temperature in reaction buffer (50 mM NaHEPES, pH 6).
FTO, sequence (Q9C0B1 whole entry): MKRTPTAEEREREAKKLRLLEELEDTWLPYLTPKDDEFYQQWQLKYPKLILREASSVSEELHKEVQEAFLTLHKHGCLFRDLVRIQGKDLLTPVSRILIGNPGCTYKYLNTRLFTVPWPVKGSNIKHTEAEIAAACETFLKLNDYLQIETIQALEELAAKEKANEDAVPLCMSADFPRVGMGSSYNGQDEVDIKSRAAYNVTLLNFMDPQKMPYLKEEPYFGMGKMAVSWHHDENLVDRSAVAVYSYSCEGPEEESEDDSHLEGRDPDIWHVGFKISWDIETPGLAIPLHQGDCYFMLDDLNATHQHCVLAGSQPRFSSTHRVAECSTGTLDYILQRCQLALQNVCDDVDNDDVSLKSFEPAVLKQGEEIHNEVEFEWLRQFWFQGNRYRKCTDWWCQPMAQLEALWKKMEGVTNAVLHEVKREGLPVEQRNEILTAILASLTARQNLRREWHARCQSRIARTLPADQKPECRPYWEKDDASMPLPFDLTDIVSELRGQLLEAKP
as §1
On to `O=S(=O)(NCc1ccccn1)c1ccc(OC(F)(F)F)cc1` [TR-ALKBH5-32], for which the IC50 was greater than 40 µM.

Regarding `Cc1ccc(NS(=O)(=O)c2ccc(OC(F)(F)F)cc2)cc1C` [TR-ALKBH5-34], the IC50 was greater than 40 µM.

As to `O=S(=O)(Nc1ccccc1N1CCCCC1)c1ccc(OC(F)(F)F)cc1` [TR-ALKBH5-36], the IC50 is 23.2 µM.

Take `O=S(=O)(Nc1ccc(F)c(Cl)c1)c1ccc(OC(F)(F)F)cc1` [TR-ALKBH5-38]: the IC50 turned out to be 27.6 µM.

Regarding `O=S(=O)(Nc1cccc(O)c1)c1ccc(OC(F)(F)F)cc1` [TR-ALKBH5-39], the IC50 is greater than 40 µM.

For the molecule `CN(CCCN1c2ccccc2CCc2ccccc21)S(=O)(=O)c1ccc(OC(F)(F)F)cc1` [TR-ALKBH5-40], the IC50 was 59.4 µM.

Take `C[C@@H](NS(=O)(=O)c1ccc(OC(F)(F)F)cc1)c1cccnc1` [TR-ALKBH5-42]: the IC50 is 285 µM.

Staying with this series, now noted: comparison of enzymatic IC50 values.
Regarding `COc1ncc(-c2ccc(CO)c(OC)c2)cn1` [FTO-6, (2-methoxy-4-(2-methoxypyrimidin-5-yl)phenyl)methanol], the “selectivity between FTO and ALKBH5” value is given as “five-fold or higher”.

Staying with this series, now noted: dose response could not be determined.
With `COc1ncc(-c2cccc(OCc3ccccc3)c2)cn1` [FTO-3, 5-(3-(benzyloxy)phenyl)-2-methoxypyrimidine], the “precipitation in assay buffer” value is “significant precipitation”.

Turning to `COCCNc1ncc(-c2ccc3cc(OC)ccc3c2)cn1` [FTO-15, N-(2-methoxyethyl)-5-(6-methoxynaphthalen-2-yl)pyrimidin-2-amine], the “precipitation in assay buffer” value is “significant precipitation”.

Still in this series, the particulars now being: m6A7-Broccoli fluorescence assay, 0.250 μM FTO, inhibitor up to 40 μM, triplicate; read-out: Enzymatic IC50 FTO.
Regarding `COc1ncc(-c2ccc(CO)c(OC)c2)cn1` [FTO-6, (2-methoxy-4-(2-methoxypyrimidin-5-yl)phenyl)methanol], the IC50 was 13.8 ± 2.4 µM.

Regarding `Cc1ccc2cc(-c3cnc(N)nc3)ccc2n1` [FTO-14, 5-(2-methylquinolin-6-yl)pyrimidin-2-amine], the IC50 turned out to be 59.6 µM.

For the molecule `COCCNc1ncc(-c2ccc3cc(O)ccc3c2)cn1` [FTO-16, 6-(2-((2-methoxyethyl)amino)pyrimidin-5-yl)naphthalen-2-ol], the IC50 turned out to be 46.5 µM.

On to `COCCNc1ncc(-c2ccc3ccc(O)cc3c2)cn1` [FTO-17, 7-(2-((2-methoxyethyl)amino)pyrimidin-5-yl)naphthalen-2-ol], for which the IC50 worked out at 51.9 µM.

With `FC(F)(F)c1cccc(CNCC2(N3CCCC3)COC2)c1` [TR-FTO-02], the IC50 was found to be 4.3 µM.

Regarding `FC1CCN(C2(CNCc3ccc(-c4ccccc4)o3)COC2)C1` (stereo not drawn) [TR-FTO-48], the IC50 was found to be 2 µM.

Test system in a further series: not listed separately
In words: elogD / log D determination.
Conditions: not given
In the case of `FC(F)(F)c1cccc(CNCC2(N3CCCC3)COC2)c1` [TR-FTO-02], the elogD is listed as 1.02.

`FC1CCN(C2(CNCc3ccc(-c4ccccc4)o3)COC2)C1` (stereo not drawn) [TR-FTO-48] gave an elogD of 1.34.

Still in this series, the particulars now being: Table 800 compounds.
Turning to `O=S(=O)(NCc1ccccn1)c1ccc(OC(F)(F)F)cc1` [TR-ALKBH5-32], the elogD is on record as 2.25.

Regarding `Cc1ccc(NS(=O)(=O)c2ccc(OC(F)(F)F)cc2)cc1C` [TR-ALKBH5-34], the elogD is on record as 0.60.

In the case of `O=S(=O)(Nc1ccccc1N1CCCCC1)c1ccc(OC(F)(F)F)cc1` [TR-ALKBH5-36], the elogD is on record as 1.13.

Regarding `O=S(=O)(Nc1ccc(F)c(Cl)c1)c1ccc(OC(F)(F)F)cc1` [TR-ALKBH5-38], the elogD is listed as 2.58.

The molecule `O=S(=O)(Nc1cccc(O)c1)c1ccc(OC(F)(F)F)cc1` [TR-ALKBH5-39] displayed an elogD of 1.60.

Molecule `CN(CCCN1c2ccccc2CCc2ccccc21)S(=O)(=O)c1ccc(OC(F)(F)F)cc1` [TR-ALKBH5-40] showed an elogD of 2.05.

In the case of `C[C@@H](NS(=O)(=O)c1ccc(OC(F)(F)F)cc1)c1cccnc1` [TR-ALKBH5-42], the elogD is reported as 0.83.

The target of the next series is YTHDF1 (Homo sapiens (Human), UniProt Q9BYJ9). Kind of series: In vitro FRET assay for binding affinities of YTH inhibitors, YTHDF1. As to conditions: read-out: Ki (pM) YTHDF1. The text has this: FIG. 8-2 depicts possible design and synthesis of compound libraries. In Vitro FRET assay development could yield a high throughput FRET assay to determine binding affinities for potential YHT inhibitors against YTHDF1, YTHDF2, YTHDF3, or other similar proteins.
YTHDF1, sequence (Q9BYJ9 whole entry): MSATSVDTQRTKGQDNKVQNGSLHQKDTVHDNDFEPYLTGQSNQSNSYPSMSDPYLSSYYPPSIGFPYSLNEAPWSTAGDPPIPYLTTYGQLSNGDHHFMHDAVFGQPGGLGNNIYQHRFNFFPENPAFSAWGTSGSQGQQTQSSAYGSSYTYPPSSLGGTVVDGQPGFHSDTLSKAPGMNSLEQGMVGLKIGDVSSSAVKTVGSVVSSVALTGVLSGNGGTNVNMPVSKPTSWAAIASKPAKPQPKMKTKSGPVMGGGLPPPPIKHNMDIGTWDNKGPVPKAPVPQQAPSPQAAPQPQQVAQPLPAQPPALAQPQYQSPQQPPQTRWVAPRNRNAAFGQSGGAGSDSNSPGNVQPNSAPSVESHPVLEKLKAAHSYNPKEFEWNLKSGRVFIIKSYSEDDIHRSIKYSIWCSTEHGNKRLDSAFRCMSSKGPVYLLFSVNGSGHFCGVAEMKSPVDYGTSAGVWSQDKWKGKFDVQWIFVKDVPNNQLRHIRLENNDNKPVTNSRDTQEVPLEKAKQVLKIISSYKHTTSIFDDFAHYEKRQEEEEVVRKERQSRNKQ
`Fc1ccc(CNc2ccc(CNC3CC3)cn2)cc1` [TR-YTH-08]: the Ki worked out at 880 ± 194 pM.

The series is the same for the next values; noted with them: read-out: Ki YTHDF1.
Take `Fc1ccc(CNc2ccc(CNC3CC3)cn2)cc1` [TR-YTH-08]: the Ki was 880 ± 194 pM.

Test system in another series: not given
Assay: not given
Conditions: not given
`COc1ncc(-c2cccc(OCc3ccccc3)c2)cn1` [FTO-3, 5-(3-(benzyloxy)phenyl)-2-methoxypyrimidine] registered a melting point of 230 °C.

For `COc1ncc(-c2ccc(CO)c(OC)c2)cn1` [FTO-6, (2-methoxy-4-(2-methoxypyrimidin-5-yl)phenyl)methanol], the melting point was 230 °C.

In turn, `Cc1ccc2cc(-c3cnc(N)nc3)ccc2n1` [FTO-14, 5-(2-methylquinolin-6-yl)pyrimidin-2-amine] yielded a melting point of 230 °C.

For the molecule `COCCNc1ncc(-c2ccc3cc(OC)ccc3c2)cn1` [FTO-15, N-(2-methoxyethyl)-5-(6-methoxynaphthalen-2-yl)pyrimidin-2-amine], the melting point was 230 °C.

For the molecule `COCCNc1ncc(-c2ccc3cc(O)ccc3c2)cn1` [FTO-16, 6-(2-((2-methoxyethyl)amino)pyrimidin-5-yl)naphthalen-2-ol], the melting point is 230 °C.

`COCCNc1ncc(-c2ccc3ccc(O)cc3c2)cn1` [FTO-17, 7-(2-((2-methoxyethyl)amino)pyrimidin-5-yl)naphthalen-2-ol] registered a melting point of 230 °C.
